In this assay the target is T1, KIAA0664 Clustered mitochondria protein homolog (Homo sapiens, UniProt O75153).
T1 construct: Cells were resuspended in cold PBS on ice and sonicated with a probe sonicator to achieve lysis; endogenous in cells
T1 sequence (O75153 1-1309): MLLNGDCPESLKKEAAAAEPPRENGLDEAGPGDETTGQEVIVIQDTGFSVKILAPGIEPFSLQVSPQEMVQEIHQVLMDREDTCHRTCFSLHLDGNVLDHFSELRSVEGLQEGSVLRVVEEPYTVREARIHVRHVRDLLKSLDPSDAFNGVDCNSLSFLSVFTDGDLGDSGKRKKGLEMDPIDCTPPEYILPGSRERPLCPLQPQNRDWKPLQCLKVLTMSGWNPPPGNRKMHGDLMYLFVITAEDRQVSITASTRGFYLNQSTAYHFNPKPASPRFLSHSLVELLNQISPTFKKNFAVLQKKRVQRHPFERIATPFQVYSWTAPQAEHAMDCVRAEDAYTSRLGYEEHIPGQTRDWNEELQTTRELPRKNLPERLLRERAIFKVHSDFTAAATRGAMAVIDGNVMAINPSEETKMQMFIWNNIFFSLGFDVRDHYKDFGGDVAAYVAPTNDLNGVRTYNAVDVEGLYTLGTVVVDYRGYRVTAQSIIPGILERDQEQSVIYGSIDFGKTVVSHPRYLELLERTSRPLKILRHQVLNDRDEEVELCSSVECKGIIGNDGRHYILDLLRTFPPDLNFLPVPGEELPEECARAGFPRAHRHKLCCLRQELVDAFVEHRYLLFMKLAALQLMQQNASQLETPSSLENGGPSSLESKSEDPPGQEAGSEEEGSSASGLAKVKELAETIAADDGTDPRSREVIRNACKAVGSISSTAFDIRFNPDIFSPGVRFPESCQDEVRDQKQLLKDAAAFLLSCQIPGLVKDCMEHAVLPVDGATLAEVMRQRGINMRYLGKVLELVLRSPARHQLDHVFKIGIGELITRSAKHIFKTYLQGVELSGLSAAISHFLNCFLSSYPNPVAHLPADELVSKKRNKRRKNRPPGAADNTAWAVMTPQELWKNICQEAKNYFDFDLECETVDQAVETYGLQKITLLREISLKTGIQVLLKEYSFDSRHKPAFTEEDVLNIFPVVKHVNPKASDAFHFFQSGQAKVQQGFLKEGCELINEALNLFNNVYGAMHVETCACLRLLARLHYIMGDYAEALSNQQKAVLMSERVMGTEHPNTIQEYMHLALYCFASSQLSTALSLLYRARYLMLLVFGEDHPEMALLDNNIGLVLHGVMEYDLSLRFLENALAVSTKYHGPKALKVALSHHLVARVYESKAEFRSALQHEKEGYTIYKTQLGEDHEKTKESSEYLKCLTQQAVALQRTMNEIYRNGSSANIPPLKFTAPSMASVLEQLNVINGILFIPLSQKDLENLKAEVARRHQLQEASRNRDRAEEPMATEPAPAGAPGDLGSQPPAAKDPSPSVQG
The experiment in a line: Cysteine liganding, probe competition. Type of assay: binding. The procedure, abridged: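 Lysates from probe-sonicated cells in PBS (5 mg/ml proteome) were exposed to compound for 1 hr at 25° C, then labelled with desthiobiotin iodoacetamide probe (10 mM stock) for 1 hr at 25° C. Probe-tagged peptides were streptavidin-enriched after trypsin digestion.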

Molecules are shown by their SMILES.

With `COc1ccc2c(c1)CCCN2C(=O)CCl` [KB02], the Liganded entry (KIAA0664 Res# 333, uniprot O75153) was “YES”.
For the compound `O=C(CCl)Nc1cc(C(F)(F)F)cc(C(F)(F)F)c1` [KBO3], for the setting “uniprot O75153”, the “100 Max” value was determined as 23.11, the 100 ave amounted to 9.323 and the 500 ave was 51.405. Besides, for the setting “uniprot O75153, in % (unit assumed)”, the “500 Max” value is given as 73.65.

Values taken from patent US20200239530A1, “COMPOUNDS AND METHODS OF MODULATING PROTEIN DEGRADATION” (Vividion Therapeutics, Inc., priority 2017, published 2020).
